Experiments:
Format in all cases: cell-based
human TLR8 = target: T1, human TLR8 (Homo sapiens, UniProt Q9NR97); assay: TLR8 inhibition reporter assay (HEK-Blue, SEAP); settings: HEK-Blue cells overexpressing human TLR8, ligand R848 14.25 μM, 22 hour incubation
T1 construct: host or cells: HEK-Blue cells
T1 sequence (Q9NR97 27-1041): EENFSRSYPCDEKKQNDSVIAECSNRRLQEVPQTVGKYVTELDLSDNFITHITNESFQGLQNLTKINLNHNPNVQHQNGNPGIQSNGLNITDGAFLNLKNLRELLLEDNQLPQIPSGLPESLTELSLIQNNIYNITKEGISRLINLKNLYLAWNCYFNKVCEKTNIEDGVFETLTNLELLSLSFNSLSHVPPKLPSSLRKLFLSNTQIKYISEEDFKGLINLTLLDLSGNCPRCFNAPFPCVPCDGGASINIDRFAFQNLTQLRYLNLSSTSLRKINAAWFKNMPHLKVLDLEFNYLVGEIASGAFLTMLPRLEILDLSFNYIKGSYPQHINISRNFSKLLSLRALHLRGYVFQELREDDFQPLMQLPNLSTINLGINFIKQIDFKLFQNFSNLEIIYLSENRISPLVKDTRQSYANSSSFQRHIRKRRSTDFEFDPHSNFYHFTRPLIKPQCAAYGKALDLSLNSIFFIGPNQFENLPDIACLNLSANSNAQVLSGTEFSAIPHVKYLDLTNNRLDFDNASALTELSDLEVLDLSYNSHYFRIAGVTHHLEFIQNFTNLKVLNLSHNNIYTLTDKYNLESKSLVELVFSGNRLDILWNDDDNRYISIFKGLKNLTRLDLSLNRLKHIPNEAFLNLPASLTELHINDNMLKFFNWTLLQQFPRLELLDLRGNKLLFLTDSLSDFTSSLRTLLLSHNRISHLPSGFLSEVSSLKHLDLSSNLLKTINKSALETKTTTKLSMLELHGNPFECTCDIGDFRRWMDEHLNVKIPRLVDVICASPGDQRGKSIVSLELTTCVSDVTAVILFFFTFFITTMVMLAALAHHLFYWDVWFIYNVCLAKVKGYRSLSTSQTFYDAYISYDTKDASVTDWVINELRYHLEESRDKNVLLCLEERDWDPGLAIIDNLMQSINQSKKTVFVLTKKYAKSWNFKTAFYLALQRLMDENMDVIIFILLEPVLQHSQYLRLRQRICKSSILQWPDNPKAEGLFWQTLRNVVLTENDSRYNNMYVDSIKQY
Outline: (§1)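 HEK-Blue cells expressing human TLR7, TLR8 or TLR9 with NF-κB/AP-1-driven SEAP reporter; compounds 0.85 nM–50 μM, pre-treated 60 min. Stimulation: gardiquimod 2.5 μM (TLR7), R848 14.25 μM (TLR8), ODN2006 200 nM (TLR9); SEAP read after 22 h at 37 °C. Percent inhibition normalized between agonist+DMSO and known-inhibitor wells.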

human TLR9 = target: T2, human TLR9 (Homo sapiens, UniProt Q9NR96); assay: TLR9 inhibition reporter assay (HEK-Blue, SEAP); settings: HEK-Blue cells overexpressing human TLR9, ligand ODN2006 200 nM, 22 hour incubation
T2 construct: host or cells: HEK-Blue cells
T2 sequence (Q9NR96 26-1032): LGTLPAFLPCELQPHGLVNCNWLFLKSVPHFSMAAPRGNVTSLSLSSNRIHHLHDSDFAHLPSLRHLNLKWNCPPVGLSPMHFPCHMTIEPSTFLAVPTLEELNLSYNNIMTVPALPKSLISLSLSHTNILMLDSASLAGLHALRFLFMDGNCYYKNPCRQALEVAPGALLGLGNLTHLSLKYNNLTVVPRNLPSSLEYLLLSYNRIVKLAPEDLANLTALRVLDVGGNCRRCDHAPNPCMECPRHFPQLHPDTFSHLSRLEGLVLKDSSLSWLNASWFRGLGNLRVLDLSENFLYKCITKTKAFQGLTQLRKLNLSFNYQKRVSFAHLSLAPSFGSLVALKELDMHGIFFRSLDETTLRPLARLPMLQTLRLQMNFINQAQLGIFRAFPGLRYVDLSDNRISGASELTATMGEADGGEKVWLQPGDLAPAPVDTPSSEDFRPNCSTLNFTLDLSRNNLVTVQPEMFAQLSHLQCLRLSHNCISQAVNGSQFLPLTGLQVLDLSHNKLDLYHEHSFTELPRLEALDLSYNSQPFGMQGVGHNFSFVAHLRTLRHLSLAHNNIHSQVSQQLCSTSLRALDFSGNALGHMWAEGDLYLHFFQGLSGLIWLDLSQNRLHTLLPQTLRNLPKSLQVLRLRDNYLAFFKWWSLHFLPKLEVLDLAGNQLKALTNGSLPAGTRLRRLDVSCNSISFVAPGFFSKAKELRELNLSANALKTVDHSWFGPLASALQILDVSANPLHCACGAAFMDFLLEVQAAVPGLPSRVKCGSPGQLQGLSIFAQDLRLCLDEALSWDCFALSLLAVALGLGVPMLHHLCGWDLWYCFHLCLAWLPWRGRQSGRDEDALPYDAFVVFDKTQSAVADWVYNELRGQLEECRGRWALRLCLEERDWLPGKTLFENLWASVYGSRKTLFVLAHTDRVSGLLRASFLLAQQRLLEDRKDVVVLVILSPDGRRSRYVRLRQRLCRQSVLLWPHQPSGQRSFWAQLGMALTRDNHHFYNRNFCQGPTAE
Outline: as §1

human TLR7 = target: T3, human TLR7 (Homo sapiens, UniProt Q9NYK1); assay: TLR7 inhibition reporter assay (HEK-Blue, SEAP); settings: HEK-Blue cells overexpressing human TLR7, ligand gardiquimod 2.5 μM, 22 hour incubation
T3 construct: host or cells: HEK-Blue cells
T3 sequence (Q9NYK1 27-1049): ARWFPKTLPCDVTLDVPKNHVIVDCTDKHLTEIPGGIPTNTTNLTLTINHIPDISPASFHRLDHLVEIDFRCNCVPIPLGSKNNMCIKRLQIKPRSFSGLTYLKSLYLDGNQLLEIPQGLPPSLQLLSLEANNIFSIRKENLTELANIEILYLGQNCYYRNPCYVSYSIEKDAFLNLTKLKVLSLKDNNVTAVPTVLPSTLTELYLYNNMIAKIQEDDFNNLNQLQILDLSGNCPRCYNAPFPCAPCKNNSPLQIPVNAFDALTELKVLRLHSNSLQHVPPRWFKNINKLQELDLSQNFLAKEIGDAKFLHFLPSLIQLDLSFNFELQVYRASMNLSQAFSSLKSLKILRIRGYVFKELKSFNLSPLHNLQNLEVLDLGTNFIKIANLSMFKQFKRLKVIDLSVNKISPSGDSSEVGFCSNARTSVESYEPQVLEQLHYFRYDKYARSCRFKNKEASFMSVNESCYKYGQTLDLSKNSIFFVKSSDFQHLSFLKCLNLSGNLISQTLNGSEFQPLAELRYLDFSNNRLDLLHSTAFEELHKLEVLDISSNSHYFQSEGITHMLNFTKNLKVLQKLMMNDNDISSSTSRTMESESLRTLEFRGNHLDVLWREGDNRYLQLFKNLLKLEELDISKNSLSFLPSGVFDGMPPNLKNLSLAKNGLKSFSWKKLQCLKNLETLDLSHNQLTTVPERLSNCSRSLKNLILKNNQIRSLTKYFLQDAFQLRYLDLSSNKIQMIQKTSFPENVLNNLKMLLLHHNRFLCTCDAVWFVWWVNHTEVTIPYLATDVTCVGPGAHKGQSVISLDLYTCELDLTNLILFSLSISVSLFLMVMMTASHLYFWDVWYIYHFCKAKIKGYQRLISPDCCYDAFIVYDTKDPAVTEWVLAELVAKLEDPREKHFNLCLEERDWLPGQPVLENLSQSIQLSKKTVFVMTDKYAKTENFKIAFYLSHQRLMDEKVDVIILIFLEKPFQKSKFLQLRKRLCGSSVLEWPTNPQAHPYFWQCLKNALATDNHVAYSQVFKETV
Outline: as §1

Row | IC50 (human TLR8) | IC50 (human TLR9) | IC50 (human TLR7) | Structure (SMILES)
1 | > 50 µM | 1.4 µM | 40 µM | COc1ccc(-c2nc3ccc(-c4ccc(N5CCN(C(C)C)CC5)cc4)nc3n2C2CC2)cc1OC [Example 55, 3-cyclopropyl-2-(3,4-dimethoxyphenyl)-5-(4-(4-isopropylpiperazin-1-yl)phenyl)-3H-imidazo[4,5-b]pyridine]
2 | > 50 µM | 3.2 µM | > 50 µM | CS(=O)(=O)c1ccc(-c2nc3ccc(-c4ccc(N5CCN(CCN6CCOCC6)CC5)cc4)nc3n2C2CC2)cc1 [Example 57, 4-(2-(4-(4-(3-cyclopropyl-2-(4-(methylsulfonyl)phenyl)-3H-imidazo[4,5-b]pyridin-5-yl)phenyl)piperazin-1-yl)ethyl)morpholine]
3 | 15 µM | 0.54 µM | 1.6 µM | COc1ccc(-c2nc3c(C)cc(-c4ccc(N5CCC6(CC5)CN(C(C)C)C6)cc4)nc3n2C)cc1OC [Example 58, 2-(3,4-dimethoxyphenyl)-5-(4-(2-isopropyl-2,7-diazaspiro[3.5]nonan-7-yl)phenyl)-3,7-dimethyl-3H-imidazo[4,5-b]pyridine]
4 | 3.6 µM | 1.1 µM | 2.5 µM | COc1ccc(-c2nc3c(C)cc(-c4ccc(N5CCC6(CC5)CN(CC(C)C)C6)cc4)nc3n2C)cc1OC [Example 60, 2-(3,4-dimethoxyphenyl)-5-(4-(2-isobutyl-2,7-diazaspiro[3.5]nonan-7-yl)phenyl)-3,7-dimethyl-3H-imidazo[4,5-b]pyridine]
5 | 18 µM | 0.56 µM | 16 µM | CC(C)N1CC2(CCN(c3ccc(-c4ccc5nc(-c6ccc(S(C)(=O)=O)cc6)n(C)c5n4)cc3)CC2)C1 [Example 61, 5-(4-(2-isopropyl-2,7-diazaspiro[3.5]nonan-7-yl)phenyl)-3-methyl-2-(4-(methylsulfonyl)phenyl)-3H-imidazo[4,5-b]pyridine]
6 | 6.1 µM | 0.59 µM | 15 µM | CC(C)CN1CC2(CCN(c3ccc(-c4ccc5nc(-c6ccc(S(C)(=O)=O)cc6)n(C)c5n4)cc3)CC2)C1 [Example 62, 5-(4-(2-isobutyl-2,7-diazaspiro[3.5]nonan-7-yl)phenyl)-3-methyl-2-(4-(methylsulfonyl)phenyl)-3H-imidazo[4,5-b]pyridine]
7 | 44 µM | 0.55 µM | 4.2 µM | Cn1c(-c2ccc(S(C)(=O)=O)cc2)nc2ccc(-c3ccc(N4CCC5(CC4)CN(CC(C)(C)O)C5)cc3)nc21 [Example 63, 2-methyl-1-(7-(4-(3-methyl-2-(4-(methylsulfonyl)phenyl)-3H-imidazo[4,5-b]pyridin-5-yl)phenyl)-2,7-diazaspiro[3.5]nonan-2-yl)propan-2-ol]
8 | 9.8 µM | 1.4 µM | 6.3 µM | COc1ccc(-c2nc3c(C)cc(-c4ccc(N5CC6(CN(CC(C)C)C6)C5)cc4)nc3n2C)cc1OC [Example 64, 2-(3,4-dimethoxyphenyl)-5-(4-(6-isobutyl-2,6-diazaspiro[3.3]heptan-2-yl)phenyl)-3,7-dimethyl-3H-imidazo[4,5-b]pyridine]
9 | 3 µM | 0.74 µM | > 50 µM | CC(C)N1CC2(CN(c3ccc(-c4ccc5nc(-c6ccc(S(C)(=O)=O)cc6)n(C)c5n4)cc3)C2)C1 [Example 65, 5-(4-(6-isopropyl-2,6-diazaspiro[3.3]heptan-2-yl)phenyl)-3-methyl-2-(4-(methylsulfonyl)phenyl)-3H-imidazo[4,5-b]pyridine]
10 | > 25 µM | 0.57 µM | > 50 µM | CC(C)CN1CC2(C1)CN(c1ccc(-c3ccc4nc(-c5ccc(S(C)(=O)=O)cc5)n(C)c4n3)cc1)C2 [Example 66, 5-(4-(6-isobutyl-2,6-diazaspiro[3.3]heptan-2-yl)phenyl)-3-methyl-2-(4-(methylsulfonyl)phenyl)-3H-imidazo[4,5-b]pyridine]

— patent publication US20250177363A1, “SUBSTITUTED IMIDAZOPYRIDINYL COMPOUNDS USEFUL AS INHIBITORS OF TLR9” (Bristol-Myers Squibb Company, priority 2022, published 2025)
